From patent US20230357166A1, “PIPERAZINE-BASED CATIONIC LIPIDS” (TRANSLATE BIO, INC., priority 2020, published 2023)

Tested on: male CD1 mice
Test: Delivery of Firefly Luciferase (FFL) mRNA by intratracheal administration of lipid nanoparticles
Assay type: in vivo
Conditions: lipid nanoparticles (Process A) with FFL mRNA, cationic lipid, DMG-PEG2000, cholesterol and DOPE (40:5:25:30 or 45:5:20:30 mol %); single intratracheal aerosol administration; IVIS imaging approximately 24 hours post-dose; FIG. 1
Protocol: One exemplary process for lipid nanoparticle formulation is Process A of WO 2018/089801 (see, e.g., Example 1 and FIG. 1 of WO 2018/089801). Process A (“A”) relates to a conventional method of encapsulating mRNA by mixing mRNA with a mixture of lipids, without first pre-forming the lipids into lipid nanoparticles. In an exemplary process, an ethanol lipid solution and an aqueous buffered solution of mRNA were prepared separately. A solution of mixture of lipids (cationic lipid, helper lipids, zwitterionic lipids, PEG lipids etc.) was prepared by dissolving lipids in ethanol. The mRNA solution was prepared by dissolving the mRNA in citrate buffer. Then, these two solutions were mixed using a pump system. In some instances, the two solutions were mixed using a gear pump system. In certain embodiments, the two solutions were mixing using a ‘T’ junction (or “Y” junction). The mixture was then purified by diafiltration with a TFF process. The resultant formulation concentrated and stored at 2-8° C. until further use.
Lipid nanoparticle formulations prepared using Process A comprising FFL mRNA, cationic lipid, DMG-PEG2000, cholesterol and DOPE (40:5:25:30 or 45:5:20:30 mol % ratio) were administered to male CD1 mice (6-8 weeks old) by a single intratracheal aerosol administration via a Microsprayer® (50 ul/animal) while under anesthesia. At approximately 24 hours post-dose, the animals were dosed with luciferin at 150 mg/kg (60 mg/ml) by intraperitoneal injection at 2.5 ml/kg. After 5-15 minutes, all animals were imaged using an IVIS imaging system to measure luciferase production in the lung.

Row | Structure (SMILES) | in vivo protein production (FFL protein; luciferase production in the lung)
1 | CCCCCCCCC(O)CN(CCCC(=O)OCCN1CC(C)N(CCOC(=O)CCCN(CC(O)CCCCCCCC)CC(O)CCCCCCCC)CC1C)CC(O)CCCCCCCC (stereo not shown) [Compound A9] | high levels of in vivo protein production
2 | CCCCCCCCCCCCC(O)CN(CCCC(=O)OCCN1CC(C)N(CCOC(=O)CCCN(CC(O)CCCCCCCCCCCC)CC(O)CCCCCCCCCCCC)CC1C)CC(O)CCCCCCCCCCCC (stereo not shown) [Compound A11] | high levels of in vivo protein production
3 | CCCCC/C=C\C/C=C\CCCCCCC(O)CN(CCCC(=O)OCCN1CC(C)N(CCOC(=O)CCCN(CC(O)CCCCCC/C=C\C/C=C\CCCCC)CC(O)CCCCCC/C=C\C/C=C\CCCCC)CC1C)CC(O)CCCCCC/C=C\C/C=C\CCCCC (stereo not shown) [Compound A15] | high levels of in vivo protein production
4 | CCCCCCCCC(O)CN(CCCCC(=O)OCCN1CC(C)N(CCOC(=O)CCCCN(CC(O)CCCCCCCC)CC(O)CCCCCCCC)CC1C)CC(O)CCCCCCCC (stereo not shown) [Compound A17] | high levels of in vivo protein production
5 | CCCCCCCCCCC(O)CN(CCCCC(=O)OCCN1CC(C)N(CCOC(=O)CCCCN(CC(O)CCCCCCCCCC)CC(O)CCCCCCCCCC)CC1C)CC(O)CCCCCCCCCC (stereo not shown) [Compound A18] | high levels of in vivo protein production
6 | CCCCCCCCCCCCC(O)CN(CCCCC(=O)OCCN1CC(C)N(CCOC(=O)CCCCN(CC(O)CCCCCCCCCCCC)CC(O)CCCCCCCCCCCC)CC1C)CC(O)CCCCCCCCCCCC (stereo not shown) [Compound A19] | high levels of in vivo protein production
7 | CCCCCCCCC(O)CN(CCCC(=O)SCCN1CC(C)N(CCSC(=O)CCCN(CC(O)CCCCCCCC)CC(O)CCCCCCCC)CC1C)CC(O)CCCCCCCC (stereo not shown) [Compound C9] | high levels of in vivo protein production
8 | CCCCCCCCC(O)CN(CCCCC(=O)SCCN1CC(C)N(CCSC(=O)CCCCN(CC(O)CCCCCCCC)CC(O)CCCCCCCC)CC1C)CC(O)CCCCCCCC (stereo not shown) [Compound C17] | high levels of in vivo protein production
9 | CCCCCCCCOC(=O)CCN(CCCCC(=O)OCCN1CC(C)N(CCOC(=O)CCCCN(CCC(=O)OCCCCCCCC)CCC(=O)OCCCCCCCC)CC1C)CCC(=O)OCCCCCCCC (stereo not shown) [Compound D21] | high levels of in vivo protein production
10 | CC(C)CCCCCCCOC(=O)CCN(CCCCC(=O)OCCN1CC(C)N(CCOC(=O)CCCCN(CCC(=O)OCCCCCCCC(C)C)CCC(=O)OCCCCCCCC(C)C)CC1C)CCC(=O)OCCCCCCCC(C)C (stereo not shown) [Compound D23] | high levels of in vivo protein production
